# Tests used:
# LXRα [1] = target: T1, LXRα (Homo sapiens, UniProt Q13133); assay: LanthaScreen TR-FRET coactivator recruitment, purified LBD (EC80 measured in this assay); format: binding
# T1 construct: gene NR1H3
# T1 sequence (Q13133 209-447 limits assumed): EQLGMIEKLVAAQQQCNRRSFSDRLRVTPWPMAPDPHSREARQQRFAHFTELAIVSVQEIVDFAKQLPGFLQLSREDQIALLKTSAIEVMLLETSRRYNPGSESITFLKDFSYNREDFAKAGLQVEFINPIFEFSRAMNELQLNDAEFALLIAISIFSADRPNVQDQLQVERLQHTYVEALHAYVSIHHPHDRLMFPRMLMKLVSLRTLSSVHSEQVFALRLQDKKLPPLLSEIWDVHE
# LXRα [2] = target: T1, LXRα; assay: LanthaScreen TR-FRET coactivator recruitment, agonist and antagonist modes, purified LBD; supported by GAL4-LBD reporter; format: biochemical
# PPARγ = target: T2, PPARγ (Homo sapiens, UniProt P37231); assay: GAL4-PPARγ LBD luciferase reporter in HG5LN (HeLa) cells; format: cell-based; settings: read-out: % activation at 80 μM
# T2 construct: gene PPARG; GAL4(1–147)-PPARγ LBD fusion
# T2 sequence (P37231 231-505 limits assumed): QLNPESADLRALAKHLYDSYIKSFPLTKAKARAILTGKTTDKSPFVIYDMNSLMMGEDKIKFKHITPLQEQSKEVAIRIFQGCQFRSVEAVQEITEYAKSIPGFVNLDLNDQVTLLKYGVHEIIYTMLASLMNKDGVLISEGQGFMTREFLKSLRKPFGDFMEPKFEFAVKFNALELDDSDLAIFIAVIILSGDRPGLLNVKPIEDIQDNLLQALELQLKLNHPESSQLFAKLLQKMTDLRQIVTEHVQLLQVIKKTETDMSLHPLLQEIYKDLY
# [3] = target: recombinant LXRα ligand-binding domain, GST-tagged; assay: FRET or BRET; LanthaScreen TR-FRET coactivator assay, cell-free, antagonist mode: GST-LXRα LBD, fluorescein Trap220 peptide, TO901317 at its EC80 in all wells (250 nM by methods and legend, 1 µM by the results text), increasing naringenin
# [4] = target: recombinant LXRα ligand-binding domain, GST-tagged; assay: FRET or BRET; LanthaScreen TR-FRET coactivator assay, cell-free, agonist mode: GST-LXRα LBD labelled by terbium anti-GST antibody, fluorescein Trap220 peptide, increasing naringenin; percent activation compared to maximal activation of positive control (TO901317)
molecule,measurement,setting,value
O=S(=O)(c1ccccc1)N(CC(F)(F)F)c1ccc(C(O)(C(F)(F)F)C(F)(F)F)cc1 [TO901317],"LanthaScreen TR-FRET coactivator recruitment, purified LBD (EC80 measured in thi)",LXRα [1],250 nM
O=C1C[C@@H](c2ccc(O)cc2)Oc2cc(O)cc(O)c21 [naringenin],% activation,LXRα [2],38.0±2.8 % activation
same,Emax at 80 µM,PPARγ,57 ± 0.3%
fluorescein-labeled Trap 220/Drip-2 co-activator peptide,percent inhibition of binding by 133 µM naringenin in the presence of 1 µM TO901317,[3],11.6%
same,percent inhibition of the TR-FRET signal by 133 µM naringenin with 250 nM TO901317,[3],15%
same,"percent activation of TR-FRET signal with naringenin, relative to TO901317",[4],38%
